This test concerns the target T1, human TPH1 (Homo sapiens, UniProt P17752).
T1 sequence (P17752 1-444): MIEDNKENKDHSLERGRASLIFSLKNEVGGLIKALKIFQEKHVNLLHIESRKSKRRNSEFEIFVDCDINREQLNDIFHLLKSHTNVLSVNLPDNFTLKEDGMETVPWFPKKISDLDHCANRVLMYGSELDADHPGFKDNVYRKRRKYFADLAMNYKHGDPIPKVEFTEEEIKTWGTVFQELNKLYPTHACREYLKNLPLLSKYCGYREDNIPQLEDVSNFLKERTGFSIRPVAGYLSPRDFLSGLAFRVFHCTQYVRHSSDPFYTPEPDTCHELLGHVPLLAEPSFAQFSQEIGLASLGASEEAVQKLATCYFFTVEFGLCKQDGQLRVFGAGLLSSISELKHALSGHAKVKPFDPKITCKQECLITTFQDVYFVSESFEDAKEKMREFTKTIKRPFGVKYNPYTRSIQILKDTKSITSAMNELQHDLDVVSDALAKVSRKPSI
The test can be described thus: biochemical. The gist of the method:
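Inhibition is derived from 5-hydroxy-L-tryptophan fluorescence (540 nm emission, 300 nm excitation) after perchloric acid stop, relative to DMSO vehicle. Recombinant full-length human enzyme (40-80 nM) reacts with 40 μM tryptophan plus 100 μM methyltetrahydropterin, pH 7.6 Tris/DTT/catalase, 15° C, 60 min.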
`CCc1nc(C)ccc1OCC(=O)N1CCc2nc3ccccn3c2C1c1ccc(C2CC2)cc1F` (centres unmarked) [Example 1.5.5, 1-(1-(4-cyclopropyl-2-fluorophenyl)-3,4-dihydroimidazo[1,2-a:5,4-c′]dipyridin-2(1H)-yl)-2-((2-ethyl-6-methylpyridin-3-yl)oxy)ethan-1-one] had an IC50 of 29 nM. As for `Cc1ccc(C2c3c(nc4cc(C(F)(F)F)ccn34)CCN2C(=O)COc2cccnc2Cl)cc1C` (centres unmarked) [Example 3.10.3, 2-((2-chloropyridin-3-yl)oxy)-1-(1-(3,4-dimethylphenyl)-7-(trifluoromethyl)-3,4-dihydroimidazo[1,2-a:5,4-c′]dipyridin-2(1H)-yl)ethan-1-one], the IC50 came out at 239 nM. `COc1ccc(C2c3c(nc4cc(C(F)(F)F)ccn34)CCN2C(=O)COc2ccc(OC(F)(F)F)cc2)cc1OC` (centres unmarked) [Example 3.1.11] gave an IC50 of 199 nM.

In turn, `COc1cc(C2c3c(nc4cc(C(F)(F)F)ccn34)CCN2C(=O)COc2ccc3ccccc3c2)ccc1OCCN(C)C` (centres unmarked) [Example 3.15.1, 1-(1-(4-(2-(dimethylamino)ethoxy)-3-methoxyphenyl)-7-(trifluoromethyl)-3,4-dihydroimidazo[1,2-a:5,4-c′]dipyridin-2(1H)-yl)-2-(naphthalen-2-yloxy)ethan-1-one] displayed a concentration for half-maximal inhibition (IC50) of 70 nM. The same measure for `COc1ccc(C2c3c(nc4cc(C(F)(F)F)ccn34)CCN2C(=O)COc2cc(F)ccc2Cl)cc1OC` (centres unmarked) [Example 3.1.14]: 103 nM; for `CCc1cc2nc3c(n2cc1C)C(c1ccc(OC)c(OC)c1)N(C(=O)COc1ccc2ccccc2c1)CC3` (centres unmarked) [Example 6.1.2, 1-(1-(3,4-dimethoxyphenyl)-7-ethyl-8-methyl-3,4-dihydroimidazo[1,2-a:5,4-c′]dipyridin-2(1H)-yl)-2-(naphthalen-2-yloxy)ethan-1-one]: 9 nM. Consider `Cc1cc(Cl)ccc1OCC(=O)N1CCc2nc3ccccn3c2C1c1ccc(Cl)cc1F` (centres unmarked) [Example 1.4.1, 1-(1-(4-chloro-2-fluorophenyl)-3,4-dihydroimidazo[1,2-a:5,4-c′]dipyridin-2(1H)-yl)-2-(4-chloro-2-methylphenoxy)ethan-1-one], for which it took 18 nM to reach half-maximal inhibition (IC50). The compound `O=C(COc1ccc2ccccc2c1)N1CCc2nc3cc(C(F)(F)F)ccn3c2C1c1ccc(F)cc1` (centres unmarked) [Example 3.29.1, 1-(1-(4-fluorophenyl)-7-(trifluoromethyl)-3,4-dihydroimidazo[1,2-a:5,4-c′]dipyridin-2(1H)-yl)-2-(naphthalen-2-yloxy)ethan-1-one] returned an IC50 of 312 nM. As to `O=C(COc1ccc(CN2CCOCC2)cc1Cl)N1CCc2nc3cc(C(F)(F)F)ccn3c2C1c1ccc(OCC(F)(F)F)nc1` (centres unmarked) [Example 3.8.1, 2-(2-chloro-4-(morpholinomethyl)phenoxy)-1-(1-(6-(2,2,2-trifluoroethoxy)pyridin-3-yl)-7-(trifluoromethyl)-3,4-dihydroimidazo[1,2-a:5,4-c′]dipyridin-2(1H)-yl)ethan-1-one], it took 86 nM to reach half-maximal inhibition (IC50). With `Cc1cc(C2c3c(nc4cc(C(F)(F)F)ccn34)CCN2C(=O)COc2ccc(CN3CCOCC3)cc2Cl)ccn1` (centres unmarked) [Example 3.57.2, 2-(2-chloro-4-(morpholinomethyl)phenoxy)-1-(1-(2-methylpyridin-4-yl)-7-(trifluoromethyl)-3,4-dihydroimidazo[1,2-a:5,4-c′]dipyridin-2(1H)-yl)ethan-1-one], the IC50 came to 35 nM. In the case of `O=C(COc1ccc2ccccc2c1)N1CCc2nc3cc(C(F)(F)F)ccn3c2C1c1ccccc1F` (centres unmarked) [Example 3.35.1, 1-(1-(2-fluorophenyl)-7-(trifluoromethyl)-3,4-dihydroimidazo[1,2-a:5,4-c′]dipyridin-2(1H)-yl)-2-(naphthalen-2-yloxy)ethan-1-one], the IC50 was 17 nM. With `O=C(COc1ccc(CN2CCOCC2)cc1Cl)N1CCc2nc3cc(C(F)(F)F)ccn3c2C1c1ccc(Cl)cn1` (centres unmarked) [Example 3.58.1, 2-(2-chloro-4-(morpholinomethyl)phenoxy)-1-(1-(5-chloropyridin-2-yl)-7-(trifluoromethyl)-3,4-dihydroimidazo[1,2-a:5,4-c′]dipyridin-2(1H)-yl)ethan-1-one], half-maximal inhibition (IC50) required 30 nM. `O=C(COc1ccc2ccccc2c1)N1CCc2nc3cc(C(F)(F)F)ccn3c2C1c1ccc2c(c1)OCO2` (centres unmarked) [Example 3.16.1, 1-(1-(benzo[d][1,3]dioxol-5-yl)-7-(trifluoromethyl)-3,4-dihydroimidazo[1,2-a:5,4-c′]dipyridin-2(1H)-yl)-2-(naphthalen-2-yloxy)ethan-1-one] showed an IC50 of 150 nM. Regarding `COc1ccc(C2c3c(nc4cc(Cl)ccn34)CCN2C(=O)COc2ccc(CO)cc2Cl)cc1OC` (centres unmarked) [Example 2.1.3, 1-(7-chloro-1-(3,4-dimethoxyphenyl)-3,4-dihydroimidazo[1,2-a:5,4-c′]dipyridin-2(1H)-yl)-2-(2-chloro-4-(hydroxymethyl)phenoxy)ethan-1-one], the IC50 came out at 402 nM. The same measure for `O=C(COc1ccc(C(F)(F)F)cc1Cl)N1CCc2nc3cccnn3c2C1c1ncc(C2CC2)cc1F` (centres unmarked) [Example 16.2.5, 2-(2-chloro-4-(trifluoromethyl)phenoxy)-1-(9-(5-cyclopropyl-3-fluoropyridin-2-yl)-6,9-dihydropyrido[4′,3′:4,5]imidazo[1,2-b]pyridazin-8(7H)-yl)ethan-1-one]: 238 nM; for `O=C(COc1cccnc1Cl)N1CCc2nc3ccccn3c2C1c1ccc(Cl)cc1F` (centres unmarked) [Example 1.4.3, 1-(1-(4-chloro-2-fluorophenyl)-3,4-dihydroimidazo[1,2-a:5,4-c′]dipyridin-2(1H)-yl)-2-((2-chloropyridin-3-yl)oxy)ethan-1-one]: 271 nM; for `O=C(COc1ccc(CN2CCOCC2)cc1Cl)N1CCc2nc3cc(Cl)ccn3c2C1c1cccnc1F` (centres unmarked) [Example 2.2.1, 1-(7-chloro-1-(2-fluoropyridin-3-yl)-3,4-dihydroimidazo[1,2-a:5,4-c′]dipyridin-2(1H)-yl)-2-(2-chloro-4-(morpholinomethyl)phenoxy)ethan-1-one]: 269 nM.

`COCc1ccc(C2c3c(nc4ccccn34)CCN2C(=O)COc2ccc(NS(C)(=O)=O)nc2Cl)c(F)c1` (centres unmarked) [Example 1.18.2, N-(6-chloro-5-(2-(1-(2-fluoro-4-(methoxymethyl)phenyl)-3,4-dihydroimidazo[1,2-a:5,4-c′]dipyridin-2(1H)-yl)-2-oxoethoxy)pyridin-2-yl)methanesulfonamide]: the IC50 turned out to be 40 nM. Compound `COc1cc(C2c3c(nc4cc(C(F)(F)F)ccn34)CCN2C(=O)COc2ccc3ccccc3c2)ccc1OC(F)F` (centres unmarked) [Example 3.14.1, 1-(1-(4-(difluoromethoxy)-3-methoxyphenyl)-7-(trifluoromethyl)-3,4-dihydroimidazo[1,2-a:5,4-c′]dipyridin-2(1H)-yl)-2-(naphthalen-2-yloxy)ethan-1-one] showed an IC50 of 106 nM. In turn, `COc1ccc(C2c3c(nc4cc(C(F)(F)F)ccn34)CCN2C(=O)COc2cccnc2Cl)cc1` (centres unmarked) [Example 3.24.2, 2-((2-chloropyridin-3-yl)oxy)-1-(1-(4-methoxyphenyl)-7-(trifluoromethyl)-3,4-dihydroimidazo[1,2-a:5,4-c′]dipyridin-2(1H)-yl)ethan-1-one] came in with an IC50 of 429 nM. As for `O=C(COc1ccc(CN2CCOCC2)cc1Cl)N1CCc2nc3cc(C(F)(F)F)ccn3c2C1c1cnn(-c2ccccc2)c1` (centres unmarked) [Example 3.41.2, 2-(2-chloro-4-(morpholinomethyl)phenoxy)-1-(1-(1-phenyl-1H-pyrazol-4-yl)-7-(trifluoromethyl)-3,4-dihydroimidazo[1,2-a:5,4-c′]dipyridin-2(1H)-yl)ethan-1-one], it took 24 nM to reach half-maximal inhibition (IC50). With `CCc1nc(NS(C)(=O)=O)ccc1OCC(=O)N1CCc2nc3ccc(F)cn3c2C1c1sc(C)nc1C` (centres unmarked) [Example 11.3.1, N-(5-(2-(1-(2,4-dimethylthiazol-5-yl)-8-fluoro-3,4-dihydroimidazo[1,2-a:5,4-c′]dipyridin-2(1H)-yl)-2-oxoethoxy)-6-ethylpyridin-2-yl)methanesulfonamide], it took 48 nM to reach half-maximal inhibition (IC50). The same measure for `COc1ccc(C2c3c(nc4cc(C(F)(F)F)ccn34)CCN2C(=O)COc2nn(C)c(C(F)(F)F)c2Cl)cc1OC` (centres unmarked) [Example 3.1.25, 2-((4-chloro-1-methyl-5-(trifluoromethyl)-1H-pyrazol-3-yl)oxy)-1-(1-(3,4-dimethoxyphenyl)-7-(trifluoromethyl)-3,4-dihydroimidazo[1,2-a:5,4-c′]dipyridin-2(1H)-yl)ethan-1-one]: 78 nM; for `O=C(COc1ccc(N2CCOCC2)nc1Cl)N1CCc2nc3ccccn3c2C1c1ccc(C2CC2)nc1F` (centres unmarked) [Example 1.13.1, 2-((2-chloro-6-morpholinopyridin-3-yl)oxy)-1-(1-(6-cyclopropyl-2-fluoropyridin-3-yl)-3,4-dihydroimidazo[1,2-a:5,4-c′]dipyridin-2(1H)-yl)ethan-1-one]: 8 nM. The result for `CN(CC(F)(F)F)c1ccc(OCC(=O)N2CCc3nc4ccccn4c3C2c2ccc(Cl)cc2F)c(Cl)n1` (centres unmarked) [Example 1.4.11, 1-(1-(4-chloro-2-fluorophenyl)-3,4-dihydroimidazo[1,2-a:5,4-c′]dipyridin-2(1H)-yl)-2-((2-chloro-6-(methyl(2,2,2-trifluoroethyl)amino)pyridin-3-yl)oxy)ethan-1-one] reads 14 nM. The compound `COc1ccc(C2c3c(nc4cc(C(F)(F)F)ccn34)CCN2C(=O)COc2ccc3ccccc3c2)cc1O` (centres unmarked) [Example 3.9.1, 1-(1-(3-hydroxy-4-methoxyphenyl)-7-(trifluoromethyl)-3,4-dihydroimidazo[1,2-a:5,4-c′]dipyridin-2(1H)-yl)-2-(naphthalen-2-yloxy)ethan-1-one] showed an IC50 of 45 nM.

Broadly, the IC50 is the point on the concentration scale where inhibition reaches its midpoint. Read a low IC50 as inhibition by little substance.

The values are drawn from patent US20180155344A1, “TRICYCLIC PIPERIDINE COMPOUNDS” (ACTELION PHARMACEUTICALS LTD, priority 2015, published 2018).
